According to patent publication US20250057928A1, “VACCINE COMPOSITION FOR INDUCING ANTI-IL-23 ANTIBODY” (OSAKA UNIVERSITY, priority 2021, published 2025):
Where no end group is shown, it is not given here.

How the values were obtained:
BALB/c mouse = test: TNBS-induced mouse colitis model; type: in vivo
Protocol: AJP001 conjugated peptide (SEQ ID NO: 2) was dissolved in physiological saline, mixed with an equal amount of 1 mg/mL Type-B/K CpG-ODN K3 (GeneDesign, Inc., hereinafter sometimes to be referred to as “CpG”), and subcutaneously administered to BALB/c mouse (female, 6-week-old, N=10) at 1 mg/body 3 times at two-week intervals. At the time point of 6 weeks after the initial administration, TNBS dissolved in 30% ethanol was administered by intestinal infusion at 2 mg/body. With the first administration of TNBS as Day 0, TNBS was administered by intestinal infusion at 3 mg/body on Day 7 to induce colitis. A Normal group and a 30% EtOH group, each without administration of TNBS, a Saline/TNBS group with administration of TNBS but without administration of the peptide, and a CpG/INBS group with administration of only an adjuvant were provided. Body weight was measured on Days 1, 2, 3, 4, 7, 8, 9, and 10, including the day of TNBS administration. After euthanasia by cardiac blood collection under deep anesthesia on Day 10, the obtained serum was measured for the antibody titer (GMT) and binding to mIL-23 by the ELISA method (same method as in Example 1). In addition, large intestinal tissue was collected, the length (cm) of the large intestine was measured, a 2 cm region from the anus was subjected to the measurement of cytokine mRNA expression, and a 2 to 4 cm region was subjected to histopathological examination. As to the expression of cytokine mRNA, the region was bead disrupted under ice-cooling, total RNA was extracted using RNeasy Fibrous Tissue Kit (Qiagen), and then cDNA of the extracted RNA was prepared using High-Capacity cDNA Reverse Transcription Kit ([…]). Using TaqMan Gene Expression Assays (GAPDH: Mm99999915_g1; IL-17A: Mm00439618_m1; IL-17F:Mm00521423_m1; IL-22:Mm01226722_m1; IL-23:Mm00518984_m1; IL-1β:Mm00434228_m1), Ct value was measured using Applied Biosystems 7900HT Fast Real Time PCR System. The mRNA expression level was calculated by the ΔΔCt method and evaluated as a relative value to the normal group. For histopathological examination, the collected large intestine was fixed with 10% neutral formalin, and then a specimen was prepared according to a conventional method and stained with HE. The HE-stained specimen was observed under a microscope, scored for inflammatory cell infiltration (Grade: 0-3), depth of colorectal tissue damage (Grade: 0-3), and range of colorectal mucosal damage (Grade: 0-4), and the total score was calculated.

[1] = tested on: recombinant mouse IL-23 protein (rmIL-23); test: Binding of mouse antiserum to rmIL-23, ELISA; settings: antiserum of BALB/c mice
Protocol: […] […] Specifically, a 96-well plate immobilized with an epitope peptide dissolved at 10 μg/mL in carbonate buffer was blocked with 5% skim milk/PBS, and then serum serially diluted with 5% skim milk/PBS was added, and the mixture was left standing at 4° C. overnight. After washing the wells with PBS-T, HRP-labeled anti-mouse IgG antibody (GE Healthcare) diluted with 5% skim milk/PBS was added and the mixture was shaken at room temperature for 3 hr. After washing the wells with PBS-T, TMB solution (SIGMA) was added, the wells were allowed to stand for 30 min in the dark, the reaction was stopped by adding 0.5M H2SO4, and the absorbance at 450 nm was measured using a plate reader. The serum dilution rate that gave 1/2 (OD=1.75) of the maximum absorbance was defined as the antibody titer, and the geometric mean titer: GMT was calculated from the individual values. Binding to IL-23 protein was measured by the ELISA method in the same manner as the antibody titer, using rmIL-23 (Antibodies-online GmbH) as the solid-phased antigen and goat serum for blocking.
AJP001 conjugated peptide (SEQ ID NO: 2) was dissolved in physiological saline and intradermally administered to BALB/c mice (female, 6-week-old, N=6) at 1 mg/body 3 times at two-week intervals, and blood was collected every 2 weeks until 8 weeks. […]

BALB/c mice = test: rhIL-23-induced mouse auricle inflammation model; type: in vivo; settings: 1 mg/body 3 times
Protocol: AJP001 conjugated peptide (SEQ ID NO: 6) was dissolved in physiological saline and administered to BALB/c mice (female, 6-week-old, N=8) at 1 mg/body 3 times at two-week intervals. At the time point of 6 weeks after the initial administration, rhIL-23 was administered intradermally to the ear to induce inflammation. rhIL-23 was administered every day and 4 times in total. As a control group, an rhIL-23 group without administration of AJP001 conjugated peptide was provided. Auricular thickness was measured using a thickness gauge at the time points of 3 days and 4 days after rhIL-23 administration. In addition, the mRNA expression of IL-17A, IL-22, IL-1β, LCN-2, and CXCL-2 in the auricle was measured. The results of efficacy evaluation of the AJP001 conjugated peptide (SEQ ID NO: 6) on auricular thickness and mRNA expression are shown in FIG. 6. In FIG. 6, “*” means that it is significant (P<0.05) compared with “rhIL-23”. “#” means that it is significant (P<0.05) compared with “Normal (normal group)”.

Substance | shortened large intestine length (BALB/c mouse; 1 mg/body with CpG 3 times, Day 10) | inflammatory changes in large intestine tissues (BALB/c mouse; 1 mg/body with CpG 3 times, Day 10, HE) | mRNA expression of IL-17A, IL-22, and IL-1β in tissues (BALB/c mouse; 1 mg/body with CpG 3 times, Day 10, large intestinal tissue) | body weight loss (BALB/c mouse; BALB/c mice, 1 mg/body subcutaneous with CpG-ODN K3, 3 times, TNBS Day 0 and Day 7, vs Saline/TNBS or CpG/TNBS) | binding to rmIL-23 ([1]; 0.5 mg/body twice, 5 weeks after initial administration) | binding ability to rmIL-23 ([1]; 1 mg/body 3 times, 6 weeks) | mRNA expression of IL-17A, IL-22, IL-1β, LCN-2, and CXCL-2 in auricle (BALB/c mice; rhIL-23 to ear) | increase in auricular thickness (BALB/c mice; rhIL-23 to ear daily 4 times from week 6, day 3 and 4)
SEQ ID NO 2: AJP001-Ahx-B cell epitope peptide conjugate; epitope SSSQQWQR (mouse 152-159) (not fully specified (N-terminus); listed as Mus musculus) | suppressive action | suppressive action | suppressive action | suppressive action | confirmed | contained antibodies that bind to rmIL-23 |  | 
SEQ ID NO 6: AJP001-Ahx-B cell epitope peptide conjugate; epitope SPSQPWQR (human 151-158) (not fully specified (N-terminus); listed as Homo sapiens) |  |  |  |  |  |  | suppressive action | suppressive action
